Experimental data as given in ChEMBL document CHEMBL1201862, “PubChem BioAssay data set” (2004).
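These data come from cells grown in 96-well plates and exposed to compound for 48 hours at five concentrations. Here, GI50 denotes the concentration required for 50% inhibition of growth.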 Activity calls are given as the source filed them. No stated cut-off is given here; in the data, active = GI50 up to about 1.1 µM and inactive = higher.

Experiments:
Test in all cases: growth of human tumour cells (NCI), 48 h
UACC-62 = tested on: UACC-62
HOP-62 = tested on: HOP-62
NCI-H460 = tested on: NCI-H460
U-251 = tested on: U-251
CCRF-CEM = tested on: CCRF-CEM
A549 = tested on: A549
MDA-MB-231 = tested on: MDA-MB-231
OVCAR-5 = tested on: OVCAR-5
OVCAR-4 = tested on: OVCAR-4
RPMI-8226 = tested on: RPMI-8226
SK-MEL-2 = tested on: SK-MEL-2
EKVX = tested on: EKVX
DU-145 = tested on: DU-145
IGROV-1 = tested on: IGROV-1
TK-10 = tested on: TK-10
SW-620 = tested on: SW-620
MOLT-4 = tested on: MOLT-4
SF-295 = tested on: SF-295
NCI-H226 = tested on: NCI-H226
HT-29 = tested on: HT-29
MCF7 = tested on: MCF7
HL-60 = tested on: HL-60
SK-MEL-5 = tested on: SK-MEL-5
MDA-MB-435 = tested on: MDA-MB-435
HOP-92 = tested on: HOP-92
KM12 = tested on: KM12
Malme-3M = tested on: Malme-3M
SN12C = tested on: SN12C
786-0 = tested on: 786-0
SF-539 = tested on: SF-539
SR = tested on: SR
RXF 393 = tested on: RXF 393
SNB-75 = tested on: SNB-75
A498 = tested on: A498
HCC 2998 = tested on: HCC 2998
SNB-19 = tested on: SNB-19
T47D = tested on: T47D
OVCAR-8 = tested on: OVCAR-8
HCT-15 = tested on: HCT-15
SK-MEL-28 = tested on: SK-MEL-28
PC-3 = tested on: PC-3
UO-31 = tested on: UO-31
NCI-H522 = tested on: NCI-H522
Hs-578T = tested on: Hs-578T
CAKI-1 = tested on: CAKI-1
HCT-116 = tested on: HCT-116
OVCAR-3 = tested on: OVCAR-3
BT-549 = tested on: BT-549
SF-268 = tested on: SF-268
LOX IMVI = tested on: LOX IMVI
SK-OV-3 = tested on: SK-OV-3
MDA-N = tested on: MDA-N
COLO 205 = tested on: COLO 205
NCI-H23 = tested on: NCI-H23
K562 = tested on: K562
UACC-257 = tested on: UACC-257
NCI/ADR-RES = tested on: NCI/ADR-RES
ACHN = tested on: ACHN
M14 = tested on: M14

Measured: GI50

C=C1CC(CNc2cc(Cl)nc(N)n2)C1
67.8 µM: HCT-15
inactive: UACC-62 > 100 µM | HOP-62 > 100 µM | NCI-H460 > 100 µM | U-251 55.6 µM | CCRF-CEM > 100 µM | A549 > 100 µM | MDA-MB-231 > 100 µM | OVCAR-5 > 100 µM | OVCAR-4 57.1 µM | RPMI-8226 49.9 µM | SK-MEL-2 > 100 µM | EKVX 23.1 µM | DU-145 > 100 µM | IGROV-1 > 100 µM | TK-10 > 100 µM | SW-620 > 100 µM | MOLT-4 > 100 µM | SF-295 > 100 µM | NCI-H226 54.2 µM | HT-29 > 100 µM | MCF7 > 100 µM | HL-60 > 100 µM | SK-MEL-5 50.5 µM | MDA-MB-435 > 100 µM | HOP-92 78.2 µM | KM12 > 100 µM | Malme-3M > 100 µM | SN12C > 100 µM | 786-0 > 100 µM | SF-539 > 100 µM | SR > 100 µM | RXF 393 50.9 µM | SNB-75 > 100 µM | A498 1.99 µM | HCC 2998 > 100 µM | SNB-19 > 100 µM | T47D > 10 µM | OVCAR-8 > 100 µM | SK-MEL-28 > 100 µM | PC-3 > 100 µM | UO-31 > 100 µM | NCI-H522 96.8 µM | Hs-578T 51.4 µM | CAKI-1 74.5 µM | HCT-116 > 10 µM | OVCAR-3 95.7 µM | BT-549 77.3 µM | SF-268 > 100 µM | LOX IMVI > 100 µM | SK-OV-3 44.9 µM | MDA-N > 100 µM | COLO 205 > 100 µM | NCI-H23 > 100 µM | K562 71.6 µM | UACC-257 39.6 µM | NCI/ADR-RES 62.7 µM | ACHN > 100 µM

C=CCOC(=O)[C@@H]1C[C@@H](OC(C)(C)C)CN1C(=O)[C@@H]1[C@H]2OC(C)(C)O[C@H]2CN1C(=O)OCC1c2ccccc2-c2ccccc21
11.4 µM: HCT-15
active: UO-31 0.15 µM | NCI-H522 0.383 µM
inactive: UACC-62 17.7 µM | HOP-62 1.75 µM | NCI-H460 10.5 µM | U-251 12.6 µM | M14 19.7 µM | CCRF-CEM 16.6 µM | A549 15.3 µM | MDA-MB-231 17.9 µM | OVCAR-5 16.9 µM | OVCAR-4 17.2 µM | RPMI-8226 6.19 µM | SK-MEL-2 32.2 µM | EKVX 5.05 µM | DU-145 3.45 µM | IGROV-1 17 µM | TK-10 18.4 µM | SW-620 20.9 µM | MOLT-4 15.6 µM | SF-295 17.9 µM | NCI-H226 21.5 µM | HT-29 17.2 µM | MCF7 48.4 µM | HL-60 11 µM | SK-MEL-5 18.9 µM | MDA-MB-435 17.2 µM | HOP-92 18.1 µM | KM12 2.86 µM | Malme-3M 18.2 µM | SN12C 17 µM | 786-0 5.46 µM | SF-539 14.8 µM | SR 8.05 µM | RXF 393 10.2 µM | SNB-75 17.5 µM | A498 15.7 µM | HCC 2998 17.1 µM | SNB-19 16.9 µM | T47D 19.4 µM | OVCAR-8 5.87 µM | SK-MEL-28 18.1 µM | PC-3 15.7 µM | Hs-578T 21.1 µM | CAKI-1 4.88 µM | HCT-116 17.4 µM | OVCAR-3 17.9 µM | BT-549 20.1 µM | SF-268 20.8 µM | LOX IMVI 2.3 µM | SK-OV-3 17.2 µM | MDA-N 18.1 µM | COLO 205 18.1 µM | NCI-H23 17.6 µM | K562 11 µM | UACC-257 17.5 µM | NCI/ADR-RES 3.68 µM | ACHN 15.9 µM

CC1(Br)Cc2ccccc2C1=O (stereo not given)
7.78 µM: HCT-15
inactive: UACC-62 1.29 µM | HOP-62 15.3 µM | NCI-H460 > 10 µM | U-251 4.59 µM | M14 3.09 µM | CCRF-CEM 1.75 µM | A549 12.5 µM | MDA-MB-231 6.92 µM | OVCAR-5 3.43 µM | OVCAR-4 6.89 µM | RPMI-8226 5.65 µM | SK-MEL-2 10.1 µM | EKVX 3.27 µM | DU-145 13.7 µM | IGROV-1 4.12 µM | TK-10 16.1 µM | SW-620 4.75 µM | MOLT-4 2.13 µM | SF-295 18.7 µM | NCI-H226 2.34 µM | HT-29 4.36 µM | MCF7 3.73 µM | HL-60 2.79 µM | SK-MEL-5 5.71 µM | MDA-MB-435 4.47 µM | HOP-92 6.49 µM | KM12 12.6 µM | Malme-3M 3.36 µM | SN12C 7.59 µM | 786-0 2.15 µM | SF-539 4.98 µM | SR 2.45 µM | RXF 393 > 10 µM | SNB-75 13 µM | A498 21.9 µM | HCC 2998 > 100 µM | SNB-19 33.3 µM | T47D 9.31 µM | OVCAR-8 8.57 µM | SK-MEL-28 2.29 µM | PC-3 10.3 µM | UO-31 6.95 µM | NCI-H522 4.14 µM | Hs-578T 6.79 µM | CAKI-1 8.71 µM | HCT-116 3.86 µM | OVCAR-3 8.99 µM | BT-549 1.7 µM | SF-268 4.68 µM | LOX IMVI 3.09 µM | SK-OV-3 9.06 µM | MDA-N 3.92 µM | COLO 205 4.35 µM | NCI-H23 5.41 µM | K562 3.33 µM | UACC-257 9.53 µM | NCI/ADR-RES 13.1 µM | ACHN 4.17 µM

O=c1c2ccccc2c2ccccc2c(=O)n1Cc1ccc2c(c1)OCO2
inactive: UACC-62 21.6 µM | HOP-62 62.1 µM | NCI-H460 24.6 µM | U-251 > 62.2 µM | M14 26.9 µM | CCRF-CEM 19.1 µM | A549 32.1 µM | MDA-MB-231 > 96.2 µM | OVCAR-5 34 µM | OVCAR-4 > 67.3 µM | RPMI-8226 15.9 µM | SK-MEL-2 39.7 µM | EKVX 36.1 µM | DU-145 49.9 µM | IGROV-1 8.51 µM | TK-10 > 100 µM | SW-620 33.3 µM | MOLT-4 12.9 µM | SF-295 35.4 µM | NCI-H226 56.1 µM | HT-29 22.6 µM | MCF7 38.9 µM | HL-60 11.4 µM | SK-MEL-5 20.3 µM | MDA-MB-435 6.17 µM | HOP-92 > 94.8 µM | KM12 19.5 µM | Malme-3M 67.9 µM | SN12C 37.5 µM | 786-0 27 µM | SF-539 27.1 µM | SR 4.91 µM | RXF 393 36 µM | SNB-75 42.7 µM | A498 > 70.5 µM | HCC 2998 25.1 µM | SNB-19 52.1 µM | T47D 39.9 µM | OVCAR-8 45.7 µM | SK-MEL-28 56.6 µM | PC-3 42.8 µM | UO-31 49.5 µM | NCI-H522 30.8 µM | Hs-578T 37.9 µM | CAKI-1 69.7 µM | HCT-116 19.1 µM | OVCAR-3 24.6 µM | BT-549 20.9 µM | SF-268 59.7 µM | LOX IMVI 40 µM | SK-OV-3 41.4 µM | MDA-N 10.1 µM | COLO 205 34 µM | NCI-H23 24.7 µM | K562 7.45 µM | UACC-257 57.1 µM | NCI/ADR-RES 24.9 µM | ACHN 45.4 µM
17 µM: HCT-15
